Assay results taken from patent US20260000645A1, “USE OF EBSELEN OR ONE OF THE DERIVATIVES THEREOF TO TREAT MITOCHONDRIAL PATHOLOGIES OR DYSFUNCTIONS” (ASSOCIATION FRANCAISE CONTRE LES MYOPATHIES, priority 2022, published 2026).

How the values were obtained:
[1] = system: mutant yeast strains (cox2, sym1, fmc1, atp6, taz1, shy1, A29G); assay: Halos test: respiratory growth of mutant yeast strains on non-fermentable solid medium; format: cell-based, Saccharomyces cerevisiae; conditions: 30 and 90 nmoles on filter, 28° C. or 36° C., 4 to 5 days
Description: Each of the strains of the yeast Saccharomyces cerevisiae used in these examples contain different specific mutations modeling human mutations leading to mitochondrial illnesses. At varying degrees, all these mutant yeast strains have a growth defect when cultivated on a respiratory medium such as ethanol or glycerol at 28° C. or 36° C. (depending on the strain).
• fmc: MC6 MATa ade2-1 his3-11,15 trp1-1 leu2-3,112 ura3-I fmc1: :HIS3 [Δi ER OR] (Schwimmer, C. et al. (2005) J Biol Chem, 280, 30751-30759) for the first screening • MR14 MATa ade2-1 his3-11,15 trp1-1 leu2-3,112 ura3-1 CAN1 arg8::HIS3 ρ+ atp6-L173R or RKY20MATa ade2-1 his3-11,15 trp1-1 leu2-3,112 ura3-1 CAN1 arg8::HIS3 ρ+ atp6-L173P (Rak, M. et al. (2007) J Biol Chem, 282, 34039-34047) for the second screening • taz1Δ: this strain was produced by substituting the open reading framework of TAZ1 by that of TRP1 in the strain W303-1A (MATa ade2-1 ura3-1 his311, 15 trp1-1 leu2-3, 112 can1-100) (from Taffin de Tilques, M. et al. (2017) Dis Model Mech, 10, 439-450) • shy1-G137R: this mutant was produced in the strain CW252 containing the nuclear base of W303 and a mitochondrial gene lacking intron. […]

[2] = system: Cox2 protein in mutant strain taz1; assay: Accumulation of Cox2 protein (SDS-PAGE/immunoblot) in taz1; format: cell-based, Saccharomyces cerevisiae; conditions: 1 μM of EBS
Description: Total protein extracts from the mutant yeast strain were analyzed by SDS-PAGE ([…] per well) using antibodies against the indicated proteins. The gels shown are representative of at least 3 experiments. Protein levels were quantified using the ImageJ software. The levels of Cox2 were normalized with respect to Ade13p and expressed with respect to the wild type (WT) strain.

mutant Pa nuo-51^A357V = assay: Growth halo of heat sensitive complex I mutant at 33° C.; format: cell-based, Podospora anserina; conditions: 20 nmoles of EBS, 4-5 days
Description: The strain used in the following examples contains a specific mutation modeling a human mutation in the sub-unit NDUFV1 of complex I leading to a mitochondrial illness. This strain has a growth defect at a non-permissive temperature greater than 31.5° C.
nuo-51^A357V: The mutation A357V was introduced into the gene nuo-51 of the wild type strain S along with a resistance cassette of nourseothricin (NatR). In order to mimic the human illness NDUFV1A341V, the genes NDI-1 and AOX were deactivated (El-Khoury et al., (2008) Curr Genet. 53:249-58)
The heat sensitive mutant Pa nuo-51^A357V was homogeneously spread on sterile glass beads on a square Petri dish containing a solid minimal medium (M2). Small sterile filters were then placed on the agar-agar surface and 20 nmoles of EBS were added. DMSO (the vehicle of the compound) was used as a negative control. The plate was then incubated at the non-permissive temperature of 33° C. for 4-5 days then photographed.

[3] = system: myoblasts of a TAZ patient; assay: Growth of myoblasts of TAZ patients (SRB, low glucose, 120 hours); format: cell-based, human
Description: EBS was also tested for the ability thereof to restore cell growth of a line of myoblasts from patients, carriers of mutations in the TAZ gene. The rate of proliferation was measured in a medium with a weak concentration of glucose in 384 well micro-titration plates (1200 cells/wells at T0) using the Sulforhodamine B (SRB) staining protocol at 48, 72, 96 or 120 hours after placing the cells.

HeLa KO FMC1 = assay: Proliferation of HeLa KO FMC1 cell line (SRB); format: cell-based, human; conditions: glucose 1 g/L or galactose; 96 hours; dose-dependent, wide range of concentrations (pM to μM)
Description: The cell line HeLa KO FMC1, mimicking human illnesses related to a deficiency of ATP synthase (NARP, MILS syndromes), were generated by the CRISPR-Cas9 method. The cell line HeLa KO FMC1 was cultivated in a DMEM medium containing 4.5 g/L of glucose and 110 mg/l of pyruvate and 50 mg/l of uridine.
The rate of proliferation of this HeLa cell line in which the gene FMC1 was deleted was measured in a medium containing either a low concentration of glucose (1 g/L), or of galactose in micro-plates of 384 wells (4500 cells/cm^2 at T0) using the Sulforhodamine B (SRB) staining protocol 96 hours after seeding and treatment of the cells. The bars represent the average of 8 replicates coming from 3 independent experiments.

O=c1c2ccccc2[se]n1-c1ccccc1 [ebselen, 2-phenyl-1,2-benzisoselenazol-3(2H)-one]
respiratory growth (halo of improved growth) [1]: active on all the mutant strains of yeast tested in a dose dependent manner
accumulation of the protein Cox2 [2]: increases
growth of the mutant (growth halo) (mutant Pa nuo-51^A357V): positive effect
toxicity concentration [3]: > 78.3 µM
concentration range with beneficial effects on growth, lower limit ([3]; vs DMSO): ≥ 450 nM
concentration range with beneficial effects on growth, upper limit ([3]; vs DMSO): ≤ 8.7 µM
proliferation of model cells of an ATP synthase deficiency (HeLa KO FMC1): improves
